Assay results as given in publication PMC12267067, “Targeting GRPR for sex hormone-dependent cancer after loss of E-cadherin” (Nature, 2025).
No end group written: not given here.

Tested on: YAP1 activation signature
Assay: YAP1 activation signature (GSEA) and Yap1 score by RNA-seq, murine melanoma cell lines
Format: cell-based, mouse
Settings: 4 h, 10 nM GRP
Experimental: The transcriptome, copy-number alteration, mutations and corresponding clinical data of the TCGA–SKCM (n = 473), TCGA–BRCA (n = 1,215), TCGA–STAD (n = 450), TCGA–LUSC (n = 553) and TCGA–KIRC (n = 606) datasets were retrieved from the National Cancer Institute Genomic Data Commons repository using the TCGAbiolinks R package in August 2022 (ref. [51]). The mRNA levels were calculated from RNA-sequencing read counts using RNA-Seq V2 RSEM and normalized to TPM. Expression of CDH1, CCND1, BRAF and KRAS was modelled over time using LOWESS smoothing with 1,860 points. Expression levels from acral melanoma were retrieved from GEO under accession number GSE162682. Survival analyses were carried out by separating the cohort into two groups according to gene expression. The threshold was set to 1 TPM, commonly considered to be the limit for sufficient protein expression of the transcript. The negative group was set to an expression 0.1 TPM or less to have clear separation in terms of expression (factor 10) from the positive group. The YAP and melanoma phenotypic state scores were obtained by averaging the expression of detailed marker genes, or for the mice, from their murine orthologues as described in ref. [52]. The pigmentation state was defined by the expression of MITF, MLANA, TRPM1, DCT and TYR; the starved-like melanoma cell phenotype by the expression of CD36, DLX5, IP6K3, PAX3 and TRIM67; the invasive state by the expression of AXL, CYR61, TCF4, LOXL2, TNC and WNT5A; and the neural crest cell-like phenotypic state by the expression of AQP1, GFRA2, L1CAM, NGFR, SLC22A17 and TMEM176B[52]. The scoring of YAP1 activation was determined from the expression of CYR61, CTGF, TEAD4, LATS2 and CRIM1. Yap scoring was obtained by averaging the fold change of each Yap1 target. The anoikis-resistance score was calculated on the basis of the expression of S100A7A, MTPN, ATP10B, S100A8, RSAD2, RENBP, CDHR1 and CD36. The ER-activation score was calculated according to the expressions of GATA4, SDK2, EGR3, IL19, GSG1L, RSPO1, PGR, IL24 and PDZK1. Expression data from human and mouse normal tissue were downloaded from the Human Protein Atlas (https://www.proteinatlas.org/) and from the EBI expression atlas (https://www.ebi.ac.uk/gxa/home), respectively, both accessed on 7 October 2022. The anatogram was generated using the gganatogram R package.
RNA was extracted from cells and mouse tumours using the miRNeasy kit (Qiagen, 217004), according to the manufacturer’s protocol. RNA integrity (RIN) was measured using an Agilent Bioanalyser 2100 (Agilent Technologies) and an RNA nano 6000 kit (5067-1511, Agilent Technologies). Only RNA with an RNA integrity number (RIN) of more than 7 was used for analysis. This threshold led to the sequencing of 72 mouse melanoma cell lines, 36 human melanoma cell lines and 32 mouse tumours. RNA concentrations were measured using a NanoDrop (NanoDrop Technologies). […] The libraries were equimolarly pooled and subjected to qPCR quantification using the KAPA library quantification kit (Roche). Sequencing was carried out on a NovaSeq 6000 instrument (Illumina) based on a 2 × 100 cycle mode (paired-end reads, 100 bases) using an S1 flow cell to obtain approximately 35 million clusters (70 million raw paired-end reads) per sample. Reads were mapped to the mm10 mouse reference genome (gencode m13 version-GRCm38.p5) or hg38 human reference genome (gencode 42 version-GRCh38.p13) using STAR[60]. […]

GRP: GRPR's natural agonist, endogenous ligand of GRPR (4011670 bachem) (VPLPAGGGTVLTKMYPRGNHWAVGHLM; not fully specified; ends and bridges not checked; UniProt P07492 24-50, looked up)
GSEA YAP activation, GRP vs. Mock: NES (1014-Ct, female Ecad, Grpr-negative, FDR 0.585): 0.936 | GSEA YAP activation, GRP vs. Mock: NES (1014-Grpr, female Ecad, FDR <0.0001): 2.77 | GSEA YAP activation, GRP vs. Mock: NES (1064-par, female ΔEcad, FDR <0.0001): 2.34 | GSEA YAP activation, GRP vs. Mock: NES (1181-Ct, male Ecad, Grpr-negative, FDR 0.986): 0.527 | GSEA YAP activation, GRP vs. Mock: NES (1181-Grpr, male Ecad, FDR 0.003): 1.66
